Data from patent publication US11986315B2, “Apparatus and method for the non-invasive detection of tetrahydrocannabinol use and impairment” (CHILDREN'S NATIONAL MEDICAL CENTER, priority 2018, dated 2024).

Tested on: pupillary light reflex of an individual
Assay: pupillary light reflex after inhalation of THC (pupillometry)
Assay type: in vivo
Source text: Following acquisition 131, primary data such as, for instance, pupillary dimensions and pupillary oscillations therefrom, can be determined for each of the plurality of video frames in the video sequence of the eye of the patient 132. […]
Pupillary oscillations and/or reactions to light, as described above, can reflect the activity of the autonomic nervous system. […] The pupillary light reflex can be evaluated via the method, and apparatus thereof, of the present disclosure, wherein higher frequency activation occurs with increased sympathetic tone and lower frequency activation occurs from increased parasympathetic tone. […]
According to an embodiment, a variety of pupillometric measures can be evaluated from pupillary data following initial video sequence processing 132 such that, in combination with secondary data 134 including frequency spectra, patient response profiles can be better characterized. […] As introduced above, the baseline pupil size can be found before the flash of light and the maximally constricted size can be determined after the flash of light. […]

## CCCCCc1cc(O)c2c(c1)OC(C)(C)[C@@H]1CCC(C)=C[C@@H]21 [THC, Δ^9-tetrahydrocannabinol]
cannabis-tolerant individual, 30, 60, 90, 120 and 150 minutes after inhalation of THC, FIG. 4
  influence on pupillary light reflex: inhibited to varying levels
individual, 30, 60, 120 and 180 minutes after inhalation of 24 mg of THC, FIG. 3
  influence on pupillary light reflex: inhibited to varying levels
